{"source": "patent US20180338899A1", "about": "“INHIBITORS FOR METHYLATION-RELATED ENZYMES HAT1 AND KAT8” (priority 2015, published 2018)", "key": {"HAT1": {"target": "T1, HAT1 (Homo sapiens, UniProt O14929)", "T1 sequence (O14929 1-419)": "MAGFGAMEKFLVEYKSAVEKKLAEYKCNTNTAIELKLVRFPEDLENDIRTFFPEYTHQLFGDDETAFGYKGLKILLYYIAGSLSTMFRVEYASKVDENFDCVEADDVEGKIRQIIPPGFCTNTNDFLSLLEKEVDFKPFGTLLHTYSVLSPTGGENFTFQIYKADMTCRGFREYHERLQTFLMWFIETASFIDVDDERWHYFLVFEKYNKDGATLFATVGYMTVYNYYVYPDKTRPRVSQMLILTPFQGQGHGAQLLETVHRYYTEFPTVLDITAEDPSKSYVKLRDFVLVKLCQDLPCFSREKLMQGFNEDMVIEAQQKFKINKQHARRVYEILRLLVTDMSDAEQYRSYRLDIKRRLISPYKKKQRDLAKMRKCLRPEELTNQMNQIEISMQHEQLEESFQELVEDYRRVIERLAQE", "test": "FDA library screening (analysis service PLEXERA) and binding strength, HAT1", "text": "(§1) Medicines containing each as an active ingredient (provided that each medicine has an indication other than that for malignant tumors) have already been commercially available.\n(§2) Meanwhile, medicines containing each as an active ingredient (provided that each medicine has an indication other than that for malignant tumors) have already been commercially available."}, "[1]": {"conditions": "cited from earlier work"}, "KAT8": {"target": "T2, KAT8 (Homo sapiens, UniProt Q9H7Z6)", "T2 sequence (Q9H7Z6 1-458)": "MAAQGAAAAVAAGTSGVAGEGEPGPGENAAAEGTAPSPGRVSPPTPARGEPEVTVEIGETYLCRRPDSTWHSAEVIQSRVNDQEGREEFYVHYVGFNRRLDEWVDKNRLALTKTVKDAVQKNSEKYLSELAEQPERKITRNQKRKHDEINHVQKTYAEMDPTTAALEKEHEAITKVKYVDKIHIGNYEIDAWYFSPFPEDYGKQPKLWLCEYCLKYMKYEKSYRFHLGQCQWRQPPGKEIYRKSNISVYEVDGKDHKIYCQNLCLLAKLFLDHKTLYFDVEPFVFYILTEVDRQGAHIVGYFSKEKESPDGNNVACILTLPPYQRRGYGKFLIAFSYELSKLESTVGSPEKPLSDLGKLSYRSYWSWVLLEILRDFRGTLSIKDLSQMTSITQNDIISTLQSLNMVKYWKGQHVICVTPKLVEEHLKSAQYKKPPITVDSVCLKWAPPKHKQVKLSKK", "test": "FDA library screening (analysis service PLEXERA) and binding strength, KAT8", "text": "as §1, §2"}, "[2]": {"conditions": "interview form of commercially available medicine"}, "[3]": {"conditions": "interview form, given as percent (external preparation / solution concentration)"}}, "note": "Structures can show the parent of a compound that is named as a salt. Where two headings read alike, the source gives them in different places."}
{"molecule": "CO[C@]12C[C@@H](COC(=O)c3cncc(Br)c3)CN(C)[C@@H]1Cc1cn(C)c3cccc2c13", "note": "[nicergoline]", "values": [{"measurement": "inhibition of function of HAT1", "setting": "HAT1", "result": "inhibited only HAT1"}, {"measurement": "maximum effective blood concentration (Cmax)", "setting": "[1]; [2]", "result": 96, "unit": "ng eq./mL"}]}
{"molecule": "CC(N/C(=N\\C#N)Nc1ccncc1)C(C)(C)C", "note": "(centres unmarked) [pinacidil]", "values": [{"measurement": "inhibition of function of HAT1", "setting": "HAT1", "result": "inhibited only HAT1"}, {"measurement": "maximum effective blood concentration (Cmax)", "setting": "[1]; [2]", "result": 2.5, "unit": "µg/mL"}]}
{"molecule": "CN(CCCCCCCCCCN(C)C(=O)Oc1cccc([N+](C)(C)C)c1)C(=O)Oc1cccc([N+](C)(C)C)c1", "note": "[demecarium bromide]", "values": [{"measurement": "inhibition of function of HAT1", "setting": "HAT1", "result": "inhibited function of both HAT1 and KAT8"}, {"measurement": "inhibition of function of KAT8", "setting": "KAT8", "result": "inhibited function of both HAT1 and KAT8"}]}
{"molecule": "CCN1CCN(C(=O)N[C@@H](C(=O)N[C@@H]2C(=O)N3C(C(=O)O)=C(CSc4nnnn4C)CS[C@H]23)c2ccc(O)cc2)C(=O)C1=O", "note": "[cefoperazone dihydrate]", "values": [{"measurement": "maximum effective blood concentration (Cmax)", "setting": "[1]; [2]", "result": "1,000 ng/ml"}]}
{"molecule": "CCc1cccc(CC)c1NC(=O)CN(CC(=O)O)CC(=O)O", "note": "[etifenin]", "values": [{"measurement": "inhibition of function of HAT1", "setting": "HAT1", "result": "inhibited only HAT1"}, {"measurement": "maximum effective blood concentration (Cmax)", "setting": "[1]; [2]", "result": 5.0, "unit": "µg/mL"}]}
{"molecule": "C=C1[C@@H]2CC[C@H]3[C@]4(C)C[C@H](O[C@@H]5O[C@H](CO)[C@@H](OS(=O)(=O)O)[C@H](OS(=O)(=O)O)[C@H]5OC(=O)CC(C)C)C[C@@H](C(=O)O)[C@H]4CC[C@]3(C2)[C@@H]1O", "note": "[atractyloside potassium salt]", "values": [{"measurement": "inhibition of function of HAT1", "setting": "HAT1", "result": "inhibited only HAT1"}, {"measurement": "maximum effective blood concentration (Cmax)", "setting": "[1]; [2]", "result": 60, "unit": "µg/mL"}]}
{"molecule": "CCCN1C[C@H](CSC)C[C@@H]2c3cccc4[nH]cc(c34)C[C@H]21", "note": "[pergolide mesylate]", "values": [{"measurement": "inhibition of function of KAT8", "setting": "KAT8", "result": "inhibited only KAT8"}, {"measurement": "maximum effective blood concentration (Cmax)", "setting": "[1]; [2]", "result": 0.026, "unit": "µg/mL"}]}
{"molecule": "O=C([O-])c1ccccc1-c1c2cc(Br)c(=O)cc-2oc2[c]([Hg+])c([O-])c(Br)cc12.[Na+].[Na+].[OH-]", "note": "[merbromin]", "values": [{"measurement": "inhibition of function of KAT8", "setting": "KAT8", "result": "inhibited only KAT8"}, {"measurement": "maximum effective blood concentration (Cmax)", "setting": "[1]; [3]", "result": 2, "unit": "%"}]}
{"molecule": "CCCCNc1cc(C(=O)O)cc(S(N)(=O)=O)c1Oc1ccccc1", "note": "[bumetanide]", "values": [{"measurement": "inhibition of function of KAT8", "setting": "KAT8", "result": "inhibited only KAT8"}, {"measurement": "maximum effective blood concentration (Cmax)", "setting": "[1]; [2]", "result": 0.882, "unit": "µg/mL"}]}
{"molecule": "Cc1cc(=O)n(-c2ccccc2)n1C", "note": "[antipyrine]", "values": [{"measurement": "inhibition of function of HAT1", "setting": "HAT1", "result": "inhibited only HAT1"}, {"measurement": "maximum effective blood concentration (Cmax)", "setting": "[1]; [2]", "result": 50, "unit": "µg/mL"}]}
{"molecule": "CCC(=O)O[C@@H](O[P@](=O)(CCCCc1ccccc1)CC(=O)N1C[C@H](C2CCCCC2)C[C@H]1C(=O)O)C(C)C", "note": "[fosinopril]", "values": [{"measurement": "maximum effective blood concentration (Cmax)", "setting": "[1]; [2]", "result": 4, "unit": "µg/mL"}]}
{"molecule": "COC(=O)CCc1ccc(OCC(O)CNC(C)C)cc1", "note": "(centres unmarked) [esmolol hydrochloride]", "values": [{"measurement": "inhibition of function of HAT1", "setting": "HAT1", "result": "inhibited only HAT1"}, {"measurement": "maximum effective blood concentration (Cmax)", "setting": "[1]; [2]", "result": 2.7, "unit": "µg/mL"}]}
{"molecule": "C[N+]1(C)CCC(OC(=O)C(O)(c2ccccc2)C2CCCC2)C1", "note": "(centres unmarked) [glycopyrrolate]", "values": [{"measurement": "inhibition of function of KAT8", "setting": "KAT8", "result": "inhibited only KAT8"}]}
{"molecule": "C[C@@H](O)[C@H]1C(=O)N2C(C(=O)O)=C(SCCN=CN)C[C@H]12", "note": "[imipenem]", "values": [{"measurement": "maximum effective blood concentration (Cmax)", "setting": "[1]; [2]", "result": 82.8, "unit": "µg/mL"}]}
{"molecule": "COCCc1ccc(OCC(O)CNC(C)C)cc1.COCCc1ccc(OCC(O)CNC(C)C)cc1.O=C(O)C(O)C(O)C(=O)O", "note": "(racemic) [metoprolol-(+,−)(+)-tartrate salt]", "values": [{"measurement": "inhibition of function of KAT8", "setting": "KAT8", "result": "inhibited only KAT8"}, {"measurement": "maximum effective blood concentration (Cmax)", "setting": "[1]; [2]", "result": 0.077, "unit": "µg/mL"}]}
{"molecule": "CC(C(=O)O)c1ccc(C(=O)c2cccs2)cc1", "note": "(centres unmarked) [suprofen]", "values": [{"measurement": "inhibition of function of HAT1", "setting": "HAT1", "result": "inhibited only HAT1"}, {"measurement": "maximum effective blood concentration (Cmax)", "setting": "[1]; [3]", "result": 1, "unit": "%"}]}
{"molecule": "C=CC1=C(C(=O)O)N2C(=O)[C@@H](NC(=O)/C(=N\\OCC(=O)O)c3csc(N)n3)[C@H]2SC1", "note": "[cefixime]", "values": [{"measurement": "maximum effective blood concentration (Cmax)", "setting": "[1]; [2]", "result": 3.97, "unit": "µg/mL"}]}
{"molecule": "CCc1oc2ccccc2c1C(=O)c1cc(Br)c(O)c(Br)c1", "note": "[benzbromarone]", "values": [{"measurement": "inhibition of function of HAT1", "setting": "HAT1", "result": "inhibited only HAT1"}, {"measurement": "maximum effective blood concentration (Cmax)", "setting": "[1]; [2]", "result": 3.1, "unit": "µg/mL"}]}
{"molecule": "CN(C(=O)CN(CCO)CC(=O)N(C)C(C)(C)Cc1ccccc1)C(C)(C)Cc1ccccc1", "note": "[oxethazaine]", "values": [{"measurement": "inhibition of function of HAT1", "setting": "HAT1", "result": "inhibited only HAT1"}, {"measurement": "maximum effective blood concentration (Cmax)", "setting": "[1]; [2]", "result": 1, "unit": "µg/mL"}]}
{"molecule": "clofilium tosylate", "values": [{"measurement": "inhibition of function of HAT1", "setting": "HAT1", "result": "inhibited only HAT1"}, {"measurement": "maximum effective blood concentration (Cmax)", "setting": "[1]; [2]", "result": 0.11, "unit": "µg/mL"}]}
